Patent publication US20250108119A1, “NOVEL STEROID PAYLOADS, STEROID LINKERS, ADCs CONTAINING AND USE THEREOF” (IMMUNEXT, INC., priority 2021, published 2025)

What was measured:
[1] = system: LPS stimulated human PBMCs; assay: LPS stimulated human PBMC, IL-1β and IL-6 ELISA; assay type: cell-based; settings: for inhibition of IL-1β and IL-6 production / inhibition of IL-1β production: 24 hr
Method: The potency of novel steroids was assessed in a model of LPS stimulated human peripheral blood mononuclear cells (PBMCS). Stimulated PBMCs in this assay produce multiple pro-inflammatory cytokines1.
In all the following experiments, human PBMC, isolated from 1-2 healthy donors per study, were stimulated with LPS to induce cytokine production.
LPS was added either immediately after addition of free payload, or in the case of conjugates, four hours after addition of the conjugate.
Cells were plated in flat bottom 96 well plates at a final concentration of 150,000 cells/well, with technical duplicates for each condition.
Test agents were serially diluted in the assay media and added to a final concentration of 1,000 nM-1 nM or 0.2 nM depending on the assay or as a no treatment control.
LPS stimulation was added to a final concentration of 1 ng/ml.
Human IL-1β and IL-6 ELISA kits were used on supernatants according to vendor protocols. All graphs were prepared with GraphPad (Prism).

human PBMC = assay: Cytokine production (IL-1β, IL-6) at 24 hr by human PBMC incubated with 1 ng/mL LPS; assay type: cell-based; settings: for inhibition of IL-1β production / inhibition of IL-6 production: free steroid payloads, serial dilutions, 1 ng/mL LPS, 24 hr
Method: (§1) FIG. 51: INX-SM-3, INX-SM-4, and INX-SM-1 inhibit IL-1β (left) and IL-6 (right) production. Cytokine levels were measured at 24 hr for human PBMCS incubated with 1 ng/mL LPS and serial dilutions (1000-1 nM) of steroid payloads, with the no treatment control plotted on the log-scale x-axis at <1 nM; n=1 donor, standard deviation plotted from technical duplicates.
as §1, with “52: INX-SM-1,” for “51:”, “INX-SM-4” for “INX-SM-4,”, “INX-SM-6” for “INX-SM-1”, “IL-1β” for “IL-1β (left) and IL-6 (right)”, “levels” for “levels were”, “ng/ml” for “ng/mL”
(§2) FIG. 53: INX-SM-9, INX-SM-31 and INX-SM-35 inhibit IL-1β (top) and IL-6 (bottom) production. Cytokine levels measured at 24 hr for human PBMCS incubated with 1 ng/mL LPS and serial dilutions (1000-0.2 nM) of steroid payloads, with the no treatment control plotted on the log-scale x-axis at <0.2 nM; n=2 donors-representative donor shown. Standard deviation plotted from technical duplicates.
as §2, with “54: INX-SM-32 inhibits” for “53: INX-SM-9, INX-SM-31 and INX-SM-35 inhibit”, “(500-1” for “(1000-0.2”, “<1” for “<0.2”, “n=2. Representative” for “n=2 donors-representative”
Cytokine levels measured at 24 hr for human PBMCS incubated with 1 ng/ml LPS and serial dilutions (1000-0.5 nM) of steroid payloads, with the no treatment control plotted on the log-scale x-axis at <0.5 nM; n=1 donor, standard deviation plotted from technical duplicates.
FIG. 56: INX-SM-2 and INX-SM-7 show inhibition in IL-1β. Average Cytokine levels measured at 24 hr for human PBMCS incubated with 1 ng/ml LPS and serial dilutions (1000-0.16 nM) of steroid payloads, with the no treatment control plotted on the log-scale x-axis at <0.16 nM; n=1, standard deviation plotted from technical duplicates. […]
Average cytokine levels measured at 24 hr for human PBMC incubated with 1 ng/ml LPS and serial dilutions (100-0.032 nM) of glucocorticoid payloads; n=1, mean of technical duplicates.
Average cytokine levels measured at 24 hr for human PBMC incubated with 1 ng/mL LPS and serial dilutions (1000-0.32 nM) of glucocorticoid payloads; n=1, mean of technical duplicates.
Cytokine levels measured at 24 hr for human PBMC incubated with 1 ng/mL LPS and serial dilutions (1000-0.5 nM) of steroid payloads, with the no treatment control plotted on the log-scale x-axis at <0.5 nM; n=1 donor, mean of technical duplicates plotted.
Average cytokine levels for A. hull-1β B. huIL-6 measured at 24 hr for human PBMC incubated with 1 ng/mL LPS and serial dilutions (1000-0.16 nM) of conjugated steroid linker payloads, with the no treatment control plotted on the log-scale x-axis at <0.16 nM; n=1, standard deviation plotted from technical duplicates. Values above the ULOQ (12,500 pg/mL for IL-1b and 150,000 pg/mL for IL-6) were plotted as the extrapolated value.
Average cytokine levels for IL-1β measured at 24 hr for human PBMC incubated with 1 ng/mL LPS and serial dilutions (1000-0.16 nM) of conjugated steroid linker payloads, with the no treatment control plotted on the log-scale x-axis at <0.16 nM; n=1, mean plotted of technical duplicates
Average cytokine levels for IL-1β measured at 24 hr for human PBMC incubated with 1 ng/mL LPS and serial dilutions (1000-0.16 nM) of conjugated steroid linker payloads, with the no treatment control plotted on the log-scale x-axis at <0.16 nM; n=1, mean plotted of technical duplicates.
FIG. 66: Analogs of INX V are potent relative to INX231J. […]

[2] = Experiment 1: free payload 1000-1 nM, 1 ng/ml LPS, n=1 donor
[3] = Experiment 2: free payload 1000-1 nM, n=1 donor
[4] = Experiment 6: free payload 1000-0.16 nM

| Structure (SMILES) | inhibition of IL-1β production [1, 3] | inhibition of IL-1β production (human PBMC) | inhibition of IL-6 production (human PBMC) | also measured |
| --- | --- | --- | --- | --- |
| C[C@]12C=CC(=O)C=C1[C@@H](F)C[C@H]1[C@@H]3C[C@H]4O[C@@H](c5ccc(CC6CC7(C6)CC(NC(=O)[C@H](CCC(=O)O)NC(=O)CNC(=O)CBr)C7)cc5)O[C@@]4(C(=O)CO)[C@@]3(C)C[C@H](O)[C@@]12F (stereo partly drawn) [INX A23, (S)-4-(2-(2-bromoacetamido)acetamido)-5-((6-(4-((2S,6aS,6bR,7S,8aS,8bS,10R,11aR,12aS,12bS)-2,6b-difluoro-7-hydroxy-8b-(2-hydroxyacetyl)-6a,8a-dimethyl-4-oxo-2,4,6a,6b,7,8,8a,8b,11a,12,12a,12b-dodecahydro-1H-naphtho[2′,1′:4,5]indeno[1,2-d][1,3]dioxol-10-yl)benzyl)spiro[3.3]heptan-2-yl)amino)-5-oxopentanoic acid] |  |  |  | potency of conjugated linker payloads over INX J (conclusions) [1]: enhanced potency; potency in reducing IL-1β production (human PBMC; anti-VISTA conjugates, serial dilutions with respect to total ADC concentration (20-0.003 μg/mL), equivalent or reduced DAR): enhanced potency |
| C[C@]12C=CC(=O)C=C1CC[C@@H]1[C@@H]2[C@@H](O)C[C@@]2(C)[C@H]1C[C@H]1O[C@@H](c3ccc(Cc4cnc(N)s4)cc3)O[C@]12C(=O)CO [INX-SM-1, (6aR,6bS,7S,8aS,8bS,10R,11aR,12aS,12bS)-10-(4-((2-aminothiazol-5-yl)methyl)phenyl)-7-hydroxy-8b-(2-hydroxyacetyl)-6a,8a-dimethyl-1,2,6a,6b,7,8,8a,8b,11a,12,12a,12b-dodecahydro-4H-naphtho[2′,1′:4,5]indeno[1,2-d][1,3]dioxol-4-one] | show inhibition in IL-1β production | inhibit | inhibit | inhibition of IL-1β and IL-6 production [1, 2]: inhibit both IL-1β and IL-6 production |
| C[C@]12C=CC(=O)C=C1CC[C@@H]1[C@@H]2[C@@H](O)C[C@@]2(C)[C@H]1C[C@H]1O[C@@H](c3ccc(Cc4csc(N)n4)cc3)O[C@]12C(=O)CO [INX-SM-2, (6aR,6bS,7S,8aS,8bS,10R,11aR,12aS,12bS)-10-(4-((2-aminothiazol-4-yl)methyl)phenyl)-7-hydroxy-8b-(2-hydroxyacetyl)-6a,8a-dimethyl-1,2,6a,6b,7,8,8a,8b,11a,12,12a,12b-dodecahydro-4H-naphtho[2′,1′:4,5]indeno[1,2-d][1,3]dioxol-4-one] |  | inhibition |  | inhibition of IL-1β production [1, 4]: dose-dependent inhibition in IL-1β production |
| C[C@]12C=CC(=O)C=C1CC[C@@H]1[C@@H]2[C@@H](O)C[C@@]2(C)[C@H]1C[C@H]1O[C@@H](C34CC(Cc5cccc(N)c5)(C3)C4)O[C@]12C(=O)CO [INX-SM-4, (6aR,6bS,7S,8aS,8bS,10R,11aR,12aS,12bS)-10-(3-(3-aminobenzyl)bicyclo[1.1.1]pentan-1-yl)-7-hydroxy-8b-(2-hydroxyacetyl)-6a,8a-dimethyl-1,2,6a,6b,7,8,8a,8b,11a,12,12a,12b-dodecahydro-4H-naphtho[2′,1′:4,5]indeno[1,2-d][1,3]dioxol-4-one] | show inhibition in IL-1β production | inhibit | inhibit | inhibition of IL-1β and IL-6 production [1, 2]: inhibit both IL-1β and IL-6 production |
| C[C@]12C=CC(=O)C=C1CC[C@@H]1[C@@H]2[C@@H](O)C[C@@]2(C)[C@H]1C[C@H]1O[C@@H](c3cnc(Cc4cccc(N)c4)s3)O[C@]12C(=O)CO [INX-SM-6] | show inhibition in IL-1β production | inhibit |  |  |
| C[C@]12C=CC(=O)C=C1CC[C@@H]1[C@@H]2[C@@H](O)C[C@@]2(C)[C@H]1C[C@H]1O[C@@H](c3ccc(Cc4ncc(N)s4)cc3)O[C@]12C(=O)CO [INX-SM-7, (6aR,6bS,7S,8aS,8bS,10R,11aR,12aS,12bS)-10-(4-((5-aminothiazol-2-yl)methyl)phenyl)-7-hydroxy-8b-(2-hydroxyacetyl)-6a,8a-dimethyl-1,2,6a,6b,7,8,8a,8b,11a,12,12a,12b-dodecahydro-4H-naphtho[2′,1′:4,5]indeno[1,2-d][1,3]dioxol-4-one] |  | inhibition |  | inhibition of IL-1β production [1, 4]: dose-dependent inhibition in IL-1β production |
| C[C@]12C=CC(=O)C=C1CC[C@@H]1[C@@H]2[C@@H](O)C[C@@]2(C)[C@H]1C[C@H]1O[C@@H](c3ccc(CC45C6C7C4C4C5C6C74N)cc3)O[C@]12C(=O)CO (stereo partly drawn) [INX-SM-9, (6aR,6bS,7S,8aS,8bS,10R,11aR,12aS,12bS)-10-(4-((4-aminocuban-1-yl)methyl)phenyl)-7-hydroxy-8b-(2-hydroxyacetyl)-6a,8a-dimethyl-1,2,6a,6b,7,8,8a,8b,11a,12,12a,12b-dodecahydro-4H-naphtho[2′,1′:4,5]indeno[1,2-d][1,3]dioxol-4-one] |  | inhibit | inhibit | inhibition of IL-1β production ([1]; Experiment 3: free payload 1000-0.2 nM, n=2 donors): dose dependent inhibition in IL-1β production |
| C[C@]12C=CC(=O)C=C1CC[C@@H]1[C@@H]2[C@@H](O)C[C@@]2(C)[C@H]1C[C@H]1O[C@@H](c3ccc(CC45CCC(N)(CC4)CC5)cc3)O[C@]12C(=O)CO [INX-SM-10, (6aR,6bS,7S,8aS,8bS,11aR,12aS,12bS)-10-(4-((4-aminobicyclo[2.2.2]octan-1-yl)methyl)phenyl)-7-hydroxy-8b-(2-hydroxyacetyl)-6a,8a-dimethyl-1,2,6a,6b,7,8,8a,8b,11a,12,12a,12b-dodecahydro-4H-naphtho[2′,1′:4,5]indeno[1,2-d][1,3]dioxol-4-one] |  | robust inhibition | robust inhibition | inhibition of IL-1β and IL-6 production ([1]; Experiment 5: free payload 1000-0.5 nM): robust inhibition in IL-1β (top) and IL-6 (bottom) production |
| C[C@]12C=CC(=O)C=C1CC[C@@H]1[C@@H]2[C@@H](O)C[C@@]2(C)[C@H]1C[C@H]1CN(Cc3ccc(CC45CC(N)(C4)C5)cc3)C[C@]12C(=O)CO [INX-SM-17, (6aR,6bS,7S,8aS,8bS,11aR,12aS,12bS)-10-(4-((3-aminobicyclo[1.1.1]pentan-1-yl)methyl)benzyl)-7-hydroxy-8b-(2-hydroxyacetyl)-6a,8a-dimethyl-1,6a,6b,7,8,8a,8b,9,10,11,11a,12,12a,12b-tetradecahydronaphtho[2′,1′:4,5]indeno[1,2-c]pyrrol-4 (2H)-one 2,2,2-trifluoroacetate] |  | weakly inhibits |  | inhibition of IL-1β and IL-6 ([1]; Experiment 12: free payloads 1000-0.15 nM): only weakly inhibit IL-1β |
